Consider eleven compounds from ChEMBL document CHEMBL1201862, “PubChem BioAssay data set” (2004).

Some test systems named below: COLO 205; HL-60; HOP-62; HT-29; K562; KM12; MCF7; MOLT-4; NCI-H460; NCI-H522; NCI/ADR-RES; OVCAR-3; RPMI-8226; RXF 393; SF-539; SK-OV-3; U-251; UACC-62; M14; SR.
Assay in all cases: NCI-60 cell line screen, 48 h

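Protocol summary: plate cells (96-well), add compound at 5 concentrations, incubate 48 h, interpolate endpoints linearly. GI50: concentration for 50% inhibition of growth.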 Calls of active or inactive are those of the source. Cut-off read from the data, not from the text of the source: active = GI50 up to about 1.1 µM and inactive = higher.

In the case of `O=C1CSc2sc(=S)sc2S1`, the GI50 was > 100 µM (inactive) in the assay on COLO 205; > 61.5 µM (inactive) in the assay on HL-60; > 100 µM (inactive) in the assay with HOP-62; > 29.2 µM (inactive) with HT-29; > 100 µM (inactive) with K562; > 100 µM (inactive) with KM12. For the same compound, the GI50 is > 100 µM (inactive) in the assay with MCF7; > 100 µM (inactive) in the assay on MOLT-4; > 100 µM (inactive) with NCI-H460; > 61.7 µM (inactive) in the assay on NCI-H522; > 66.8 µM (inactive) with NCI/ADR-RES; > 100 µM (inactive) with OVCAR-3. Further, the GI50 with RPMI-8226 is 78.9 µM (inactive); with RXF 393, 43.1 µM (inactive); in the assay on SF-539 it was > 100 µM (inactive); in the assay with SK-OV-3 it was > 75.3 µM (inactive); with U-251, > 100 µM (inactive); in the assay on UACC-62, > 100 µM (inactive).

For the compound `O=C(c1ccc(Cl)cc1)N(C(=O)N1CCC(c2ccccc2)CC1)c1ccccc1`, the GI50 with COLO 205 was 33 µM (inactive); in the assay on HL-60 it was 17.1 µM (inactive); with HT-29, 31.3 µM (inactive); in the assay on K562, 32.1 µM (inactive); in the assay with KM12 it was 11.4 µM (inactive); with M14, 18.4 µM (inactive). The GI50 in the assay with MCF7 is 39.4 µM (inactive); with MOLT-4, 21.8 µM (inactive); in the assay with NCI/ADR-RES it was 16.6 µM (inactive); in the assay on OVCAR-3, 44.8 µM (inactive); in the assay on RPMI-8226, 13.7 µM (inactive); in the assay on RXF 393, 11.9 µM (inactive). Besides, the GI50 with SF-539 was 65 µM (inactive); with SK-OV-3, > 100 µM (inactive); in the assay on U-251, 39.5 µM (inactive); in the assay on UACC-62 it was 31.8 µM (inactive).

On to `Cc1c(N2C(=O)CS(=O)(=O)C2c2cccc(Oc3ccccc3)c2)c(=O)n(-c2ccccc2)n1C` (configuration not stated), for which the GI50 in the assay with COLO 205 is 28 µM (inactive); in the assay on HL-60, 14.1 µM (inactive); in the assay with HOP-62, 33.9 µM (inactive); with HT-29, 34.4 µM (inactive); with K562, 24.3 µM (inactive); in the assay on KM12 it was 19.4 µM (inactive). The GI50 was 23.7 µM (inactive) with M14; 36.9 µM (inactive) in the assay on MCF7; 20.5 µM (inactive) in the assay on MOLT-4; 37.2 µM (inactive) in the assay with NCI-H460; 26.1 µM (inactive) in the assay with NCI-H522; 61.2 µM (inactive) in the assay with NCI/ADR-RES. Besides, the GI50 in the assay on OVCAR-3 is 26.8 µM (inactive); with RPMI-8226, 27.2 µM (inactive); with RXF 393, 21.6 µM (inactive); in the assay on SF-539, > 100 µM (inactive); with SK-OV-3 it was 61.8 µM (inactive); with U-251 it was > 100 µM (inactive). In addition, the GI50 in the assay with UACC-62 was 66.2 µM (inactive).

As for `C1#Cc2ccccc2OCCOc2ccccc2C#Cc2ccccc2OCCOc2ccccc21`, the GI50 is 30.1 µM (inactive) in the assay on COLO 205; 61.2 µM (inactive) in the assay on HL-60; 8.77 µM (inactive) in the assay with HOP-62; 66.5 µM (inactive) with HT-29; 11.7 µM (inactive) in the assay on K562; 68.2 µM (inactive) in the assay on KM12. Besides, the GI50 is 30.8 µM (inactive) in the assay on M14; > 100 µM (inactive) in the assay with MCF7; 16.2 µM (inactive) in the assay with MOLT-4; 24.9 µM (inactive) with NCI-H460; 20.7 µM (inactive) with NCI-H522; 29.4 µM (inactive) in the assay with NCI/ADR-RES. Besides, the GI50 with OVCAR-3 was 14 µM (inactive); in the assay on RPMI-8226, 16.4 µM (inactive); in the assay with RXF 393 it was 14.7 µM (inactive); with U-251, 12.5 µM (inactive); with UACC-62 it was > 100 µM (inactive).

On to `C/C=C1\NC(=O)[C@H]2CSSCCC=C[C@H](CC(=O)N[C@H](C(C)C)C(=O)N2)OC(=O)[C@H](C(C)C)NC1=O`, for which the GI50 in the assay on HOP-62 is 9.79e-05 µM (active); in the assay with HT-29, 0.000131 µM (active); in the assay on KM12 it was 0.000154 µM (active); in the assay with M14 it was 0.000299 µM (active); with MCF7 it was 2.22e-05 µM (active); in the assay on MOLT-4 it was 0.000134 µM (active). Besides, the GI50 is 0.00124 µM (active) in the assay with NCI-H460; 0.0619 µM (active) with NCI/ADR-RES; 0.000412 µM (active) with OVCAR-3; 0.000147 µM (active) in the assay with RPMI-8226; 0.0008 µM (active) in the assay with RXF 393; 6.98e-05 µM (active) with SF-539. In addition, the GI50 with UACC-62 is 0.000188 µM (active).

As to `O=C1Nc2ccccc2Nc2ccncc21`, the GI50 with COLO 205, in the assay with HL-60, with HOP-62, in the assay on HT-29, in the assay on K562 and in the assay on KM12 was > 100 µM (inactive) in each case. Further, the GI50 with MCF7, with MOLT-4, in the assay with NCI-H460, with NCI-H522, in the assay with NCI/ADR-RES and with OVCAR-3 was > 100 µM (inactive) in each case. The GI50 with RPMI-8226, with RXF 393, with SF-539, in the assay on SK-OV-3, in the assay on U-251 and with UACC-62 was > 100 µM (inactive) each time.

Consider `Cc1[nH]c(=O)[nH]c(=O)c1/C=C/C(=O)NC(CO)C[S+]([O-])C[S+](C)[O-]` (configuration not stated), for which the GI50 in the assay with COLO 205 was 30 µM (inactive); in the assay with HL-60, 16.7 µM (inactive); with HOP-62, 16.6 µM (inactive); in the assay with HT-29, 125 µM (inactive); with K562 it was 19.5 µM (inactive); in the assay on KM12 it was 18.4 µM (inactive). The GI50 is 20.9 µM (inactive) in the assay on MCF7; 18.7 µM (inactive) in the assay with MOLT-4; 16.6 µM (inactive) with NCI-H460; 9.51 µM (inactive) in the assay on NCI-H522; 24.8 µM (inactive) in the assay with NCI/ADR-RES; 7.87 µM (inactive) in the assay with OVCAR-3. The GI50 with RPMI-8226 was 34.8 µM (inactive); with RXF 393, 20.8 µM (inactive); with SF-539, 13.9 µM (inactive); in the assay with SK-OV-3 it was 20.5 µM (inactive); in the assay on U-251, 3.8 µM (inactive); with UACC-62 it was 12.5 µM (inactive).

For the compound `C=Cc1cc2c(cc1O)CC[C@@H]1[C@@H]2CC[C@]2(C)[C@@H](O)CC[C@@H]12`, the GI50 in the assay on COLO 205 was 15.4 µM (inactive); in the assay on HL-60, 2.67 µM (inactive); with HT-29, 15.3 µM (inactive); in the assay with K562 it was 3.03 µM (inactive); in the assay with KM12, 5.11 µM (inactive); in the assay on M14, 5.4 µM (inactive). The GI50 is 3.9 µM (inactive) with MOLT-4; 3.94 µM (inactive) in the assay with NCI-H460; 4.66 µM (inactive) with NCI-H522; 1.77 µM (inactive) in the assay with NCI/ADR-RES; 2.56 µM (inactive) in the assay on RXF 393; 2.06 µM (inactive) with SF-539. Besides, the GI50 in the assay with SK-OV-3 was 5.79 µM (inactive); with SR, 1.97 µM (inactive); with U-251, 4.19 µM (inactive).

Consider `CCCO[C@@H]1[C@@H](OC(C)=O)[C@@H](OC(C)=O)C(C)(C)/C=C/[C@H](C)C(=O)[C@@]2(OC(C)=O)C[C@@](C)(OC(C)=O)[C@H](OC(C)=O)[C@@H]2[C@H]2OC(=O)CC[C@@]12OC(=O)c1ccccc1`, for which the GI50 in the assay on COLO 205 was 6.97 µM (inactive); in the assay with HL-60, 2.64 µM (inactive); in the assay with HOP-62 it was > 25 µM (inactive); in the assay on HT-29 it was 5.18 µM (inactive); with K562, 4.63 µM (inactive); with KM12, > 25 µM (inactive). Also, the GI50 in the assay with M14 is > 25 µM (inactive); in the assay with MCF7, 23.6 µM (inactive); in the assay on MOLT-4, 5.13 µM (inactive); in the assay on NCI-H460 it was 6.73 µM (inactive); in the assay with NCI-H522 it was 0.774 µM (active); in the assay on NCI/ADR-RES, > 25 µM (inactive). Besides, the GI50 in the assay with OVCAR-3, in the assay with RXF 393, in the assay on SF-539, with SK-OV-3, in the assay with U-251 and in the assay on UACC-62 was > 25 µM (inactive) in each case.

Regarding `CCC(=O)NC(OCC1(CC)COC1)(C(F)(F)F)C(F)(F)F`, the GI50 in the assay with HL-60, in the assay on HOP-62, in the assay on HT-29, in the assay with K562, with KM12 and in the assay on M14 was > 100 µM (inactive) each time. For the same compound, the GI50 with MCF7, in the assay with MOLT-4, in the assay on NCI-H460, with NCI-H522, in the assay with OVCAR-3 and with RPMI-8226 was > 100 µM (inactive) throughout. Moreover, the GI50 in the assay with RXF 393 is 92.3 µM (inactive); with SF-539, > 100 µM (inactive); in the assay with SK-OV-3 it was > 100 µM (inactive); with SR, > 100 µM (inactive); in the assay on U-251, > 100 µM (inactive); in the assay on UACC-62, > 100 µM (inactive).

On to `CC(C)CCCC(C)[C@H]1CC[C@H]2[C@@H]3CC[C@H]4C[C@@H](CCC=C(c5cc(Cl)c(O)c(C(=O)OC(C)(C)C)c5)c5cc(Cl)c(O)c(C(=O)OC(C)(C)C)c5)CC[C@]4(C)[C@H]3CC[C@]12C` (some centres not stated), for which the GI50 with COLO 205, with HL-60, in the assay with HOP-62, in the assay on HT-29, in the assay with K562 and in the assay with KM12 was > 50 µM (inactive) throughout. The GI50 in the assay with M14, in the assay with MCF7, with MOLT-4, with NCI/ADR-RES, in the assay on OVCAR-3 and in the assay on RPMI-8226 was > 50 µM (inactive) throughout. In addition, the GI50 in the assay on RXF 393 was > 50 µM (inactive); in the assay with SF-539, 15.7 µM (inactive); with SK-OV-3, > 50 µM (inactive); with U-251, > 50 µM (inactive); in the assay with UACC-62, > 50 µM (inactive).
